Measured values reported in ChEMBL document CHEMBL5042512 (Eur J Med Chem, 2022).
Active and inactive are the calls of the source. The calls are words filed in the database; no cut-off is given here.

What was measured:
[1] = system: KYSE-30; experiment: Antiproliferative activity against human KYSE-30 cells assessed as cell viability measured after 48 hrs by CCK8 assay; assay type: functional, cell-based; settings: KYSE-30, 48 h
[2] = system: KYSE-450; experiment: Induction of cell cycle arrest in human KYSE-450 cells assessed as accumulation at G2/M phase at 100 nM measured after 48 hrs by flow cytometry analysis (reference value: 7.04333 %); assay type: functional
[3] = system: KYSE-450; experiment: Induction of mitochondrial membrane potential loss in human KYSE-450 cells assessed as Bcl-xL expression at 80 to 100 nM measured after 48 hrs by western blot analysis; assay type: functional, cell-based; settings: dose 80-100 nM
[4] = system: KYSE-450; experiment: Down regulation of CDK1 protein expression in human KYSE-450 cells at 80 to 100 nM for 48 hrs by western blot analysis; assay type: functional, cell-based; settings: dose 80-100 nM
[5] = system: KYSE-450; experiment: Antiproliferative activity against human KYSE-450 cells assessed as cell viability measured after 48 hrs by CCK8 assay; assay type: functional, cell-based; settings: KYSE-450, 48 h
[6] = system: KYSE-450; experiment: Induction of mitochondrial membrane potential loss in human KYSE-450 cells assessed as Bak expression at 80 to 100 nM measured after 48 hrs by western blot analysis; assay type: functional, cell-based; settings: dose 80-100 nM
[7] = system: KYSE-450; experiment: Induction of mitochondrial membrane potential loss in human KYSE-450 cells assessed as decrease in XIAP level at 80 to 100 nM measured after 48 hrs by western blot analysis; assay type: functional, cell-based; settings: dose 80-100 nM
[8] = system: KYSE-30; experiment: Induction of mitochondrial membrane potential loss in human KYSE-30 cells assessed as Mcl-1 expression at 80 to 100 nM measured after 48 hrs by western blot analysis; assay type: functional, cell-based; settings: dose 80-100 nM
[9] = system: KYSE-30; experiment: Induction of apoptosis in human KYSE-30 cells assessed as apoptotic cells at 80 nM measured after 48 hrs by annexin-V-FITC and PI staining based flow cytometry analysis (reference value: 8.1667 %); assay type: functional
[10] = system: KYSE-450; experiment: Antiproliferative activity against human KYSE-450 cells assessed as cell growth inhibition measured after 48 hrs by CCK8 assay; assay type: functional, cell-based; settings: KYSE-450, 48 h
[11] = system: KYSE-30; experiment: Induction of apoptosis in human KYSE-30 cells assessed as caspase-3 cleavage at 80 to 100 nM measured after 48 hrs by western blot analysis; assay type: functional, cell-based; settings: dose 80-100 nM
[12] = system: KYSE-30; experiment: Down regulation of p-wee1 protein expression in human KYSE-30 cells at 80 to 100 nM for 48 hrs by western blot analysis; assay type: functional, cell-based; settings: dose 80-100 nM

COc1ccc(CN(C(=O)CSC(=S)N2CCN(C(=O)OC(C)(C)C)CC2)c2cc(OC)c(OC)c(OC)c2)cc1O
IC50 [1]: 69 nM
Activity [2]: 80.8933%
Activity [3]: inactive
Activity [4]: Dose-Dependent Effect
IC50 [5]: 76 nM
Activity [6]: inactive
Activity [7]: Dose-Dependent Effect
Activity [8]: inactive
Activity [9]: 23.8%
IC50 [10]: 76 nM
Activity [11]: Active
Activity [12]: Dose-Dependent Effect
